Experimental data as given in a melting point compilation (Tetko et al.; mined from patent text by program, amines drawn as free bases though some values may be those of a salt).

SMILES	melting point
CS(=O)(=O)c1ccc(Cl)c2[nH]ccc12	160 to 162 °C
O=C(O)C(=O)CC(=O)c1cccn1Cc1cccc(F)c1	147 to 149 °C
CCc1ccc2c(=O)c3ccccc3ccc2c1	62 to 64 °C
COc1cccc(COc2ncc(F)c(N/N=C/c3cccs3)n2)c1	136 to 139 °C
N#Cc1ccc(-c2ccc(OC3SCC(O)C(O)C3O)cn2)cn1 (centres undefined)	167 °C
NCc1ccc(CC(=O)Nc2cccc(C(=O)NCCC(=O)O)c2)cc1	108 to 109 °C
O=C(Nc1cc(C(=O)O)cc(-c2ccccc2)c1)OCc1cc2cc(-c3ccccc3)ccc2o1	174 to 175 °C
O=C(NCCCO)c1ccnc2ccccc12	201 to 202 °C
CCOC(=O)CN(CCOc1cc2cc3ncc(C#N)c(Nc4cc(OC)c(Cl)cc4C)c3cc2cc1OCC)CC(=O)OCC	85 to 86 °C
O=C(CCCCCl)NC1CCCCC1	70 to 71 °C
COc1ccccc1N1CCC(CNCC2COc3cccc(O)c3O2)CC1 (centres undefined)	116 to 119 °C
COc1nc2ccccc2nc1NC(=S)N1CCN(c2ccc(C(C)=O)cc2)CC1	235 to 237 °C
CC(C)c1cc2c(cc1C(CC(=O)O)c1ccccc1)OCO2 (centres undefined)	114 °C
O=C(CNCc1cccc(C(F)(F)F)c1)Nc1cccc2c1C(=O)c1c(NC(=O)CNCc3cccc(C(F)(F)F)c3)cccc1C2=O	190 to 191 °C
CC1(C(=O)C(C(O)C(Cl)(Cl)Cl)n2cncn2)CC1 (centres undefined)	216 to 218 °C
Cc1ccc(Cl)c2sc(O)nc12	266 °C
CC(C)(C)OC(=O)NC(C)(C)c1ccc(-c2ccc3nn(C4CCCCO4)cc3c2-c2cc[nH]n2)cc1 (centres undefined)	99 to 105 °C
COc1ccc(C(=O)Nc2ccccc2)cc1NS(=O)(=O)c1cccc2ccccc12	212 to 213 °C
O=c1oc(-c2cccc(C(F)(F)F)c2)nc2cccc(F)c12	115 to 121 °C
CSC(SC)c1cnn(-c2c(Cl)cc(C(F)(F)F)cc2Cl)n1	67 to 68 °C
CCOCc1nc(C(C)(C)O)c(C(=O)O)n1Cc1ccc(-c2ccccc2-c2nnn[nH]2)cc1	150 °C
CC1(C)CC2(CC(C)(C)N1O)NC(=O)N(CC1CO1)C2=O (centres undefined)	154 °C
CCOC(=O)C1=CC2(CCC1S(=O)(=O)Nc1ccc(F)cc1Cl)OCCO2 (centres undefined)	117 to 119 °C
O=C(N1c2ccccc2C(Br)C(Br)c2ccccc21)C(F)(F)F (centres undefined)	186 to 189 °C
COc1cccc([C@H]2O[C@H](CC(=O)Nc3ccc4oc(C(=O)O)c(OCC(=O)O)c4c3)C(=O)N(CC(C)(C)CO)c3ccc(Cl)cc32)c1OC	193 to 196 °C

SMILES	melting point
OC(Cn1cncn1)(c1ccc(F)cc1)C(F)(F)C(F)(F)C(F)(F)F (centres undefined)	126 to 127 °C
COC(=O)C=Cc1ccc2c(c1)cc(C)n2S(=O)(=O)c1ccccc1	126 to 128 °C
CCOC(=O)C1=C(C)Nc2ccnc(OCC)c2C1c1ccccc1C(F)(F)F (centres undefined)	91 to 94 °C
Cc1cccc(C)c1NC(=O)Nc1sc2ccc(Cl)cc2c1-c1ccccc1Cl	203 to 204 °C
CC1(C)SC(=S)N(Cc2ccco2)C(=O)C1NC(=O)c1ccccc1 (centres undefined)	168 to 169 °C
CCOC(=O)c1cnn(-c2ccc(Cl)cc2)c1N	150 to 156 °C
CN1C(=O)N(c2cc(Cl)cc(Cl)c2)C(=O)[C@]12CN(Cc1cc(C(=O)O)cs1)C[C@H]2c1ccc(C#N)cc1 (relative stereo)	188 °C
CCCCCc1ccc(C(=O)CCCC(=O)O)cc1	104 to 106 °C
Cc1nc2cc(Cl)ccc2c(=O)n1CCc1ccccc1	133 to 135 °C
C/C(=N\OCCN1CCOCC1)[C@H]1CC[C@H]2[C@@H]3CCC4=CC(=O)CC[C@]4(C)[C@H]3CC[C@]12C	107 to 108 °C
Cc1sc2nc(N)[nH]c(=O)c2c1-c1ccc(F)cc1	360 to 362 °C
Cc1ccccc1C=Nc1c2c(nc3ccccc13)CCCC2	160 to 162 °C
Clc1ccccc1-c1nc2occn2c1-c1ccnc(N[C@H]2CN3CCC2CC3)n1	132 to 134 °C
CN(C(=O)Nc1ccc(Cl)c(Cl)c1)S(=O)(=O)C(C)(C)C	116 °C
CCN(CC)CCNC(=O)c1cc(N)cc(C)c1OC	56 to 57 °C
CCCOc1cc(-n2c(=O)cc(C(F)(F)F)n(C)c2=O)c(F)cc1Br	119 °C
O=c1[nH]c(CCl)c(I)c(=O)[nH]1	225 °C
CC1=c2c(cc3c(c2C)C=C(C(=O)OCc2ccccc2)N=3)N=C1C(=O)OCc1ccccc1	197 to 200 °C
CCOC(=O)CCNC(=O)c1ccc2c(CC)nn(C3CCCC3)c2c1	74 to 76 °C
CC(C)(C)OC(=O)C=Cc1ccc2ccccc2c1	74 to 75 °C
Cc1ccc(Cl)c(NS(=O)(=O)C2(NC=O)N=CN=N2)c1Cl (centres undefined)	275 to 279 °C
Cc1c(C=O)c2c(c(C)c1NC(=O)CC(C)(C)C)C(c1ccc(C(C)C)cc1)CO2 (centres undefined)	177 to 178 °C
C=CC1(C=CC)OC(=O)N(c2cc(Cl)cc(Cl)c2)C1=O (centres undefined)	141 °C
CC(C)(C)[Si](C)(C)OC(CCCNCCc1ccccc1)COc1ccc2c(=O)cc(-c3ccccc3)oc2c1 (centres undefined)	89 to 91 °C
